The results in this text go back to patent US4064137A (priority 1976, dated 1977).

The structures appear in SMILES notation. “And” between values parts separate entries of the source, which are not always exact repeats. Equal entries are not always repeated. Where two headings read alike, the source gives them in different places.

One experiment concerns spleen cells of a mouse. It is filed as cell-based.
Another experiment deals with Vaccinia virus. Format: in vivo, mouse. The settings on record: for Number of pox / Inhibition percent: intraperitoneal; for Number of pox: 8th day after inoculation; for Inhibition percent: 8th day, vs control mouse.

In the case of `COC(=O)C1N2C(=O)C3(CC(C#N)=C(c4ccccc4)N3)C2SC1(C)C` (stereo not drawn) [3'-Cyano-2'-phenyl-2'-pyrroline-5'-spiro-6-penicillanic acid methyl ester], the Interferon titre in the experiment with spleen cells of a mouse was 320 unit and 160 unit. The “units of interferon induced” value in the experiment on spleen cells of a mouse is reported as 320 units. Besides, the Number of pox came out at 16.0 in the experiment on Vaccinia virus (0.49 mg/kg × 4 times), 9.1 in the experiment on Vaccinia virus (1.95 mg/kg × 4 times) and 11.2 in the experiment with Vaccinia virus (7.8 mg/kg × 4 times). Besides, the Inhibition percent is given as 34.7% with Vaccinia virus (0.49 mg/kg × 4 times), 62.9% with Vaccinia virus (1.95 mg/kg × 4 times) and 54.3% in the experiment with Vaccinia virus (7.8 mg/kg × 4 times). In the experiment on Vaccinia virus (conclusion after in vivo test), the “interferon inducibility (in words)” value is reported as “excellent interferon inducibility”.
